{"source": "ChEMBL document CHEMBL6134781", "about": "“In vitro identification of oridonin hybrids as potential anti-TNBC agents inducing cell cycle arrest and apoptosis by regulation of p21, γH2AX and cleaved PARP” (RSC Med Chem, 2024)", "key": {"HCC1806 [1]": {"test_system": "HCC1806", "experiment": "Cytotoxicity against human HCC1806 cells assessed as inhibition of cell viability incubated for 72 hrs by SRB assay", "format": "functional, cell-based", "conditions": "HCC1806, 72 h"}, "HCC1806 [2]": {"test_system": "HCC1806", "experiment": "Induction of cell cycle arrest in human HCC1806 cells assessed as accumulation at G2/M phase incubated for 16 hrs by PI staining based flow cytometry", "format": "functional", "conditions": "dose 1-3 µM"}, "MDA-MB-231 [3]": {"test_system": "MDA-MB-231", "experiment": "Induction of cell cycle arrest in human MDA-MB-231 cells assessed as accumulation at G2/M phase incubated for 16 hrs by PI staining based flow cytometry", "format": "functional", "conditions": "dose 1-3 µM"}, "MDA-MB-468 [4]": {"test_system": "MDA-MB-468", "experiment": "Induction of cell cycle arrest in human MDA-MB-468 cells assessed as accumulation at G2/M phase incubated for 16 hrs by PI staining based flow cytometry", "format": "functional", "conditions": "dose 1-3 µM"}, "HCC1806 [5]": {"test_system": "HCC1806", "experiment": "Induction of cell cycle arrest in human HCC1806 cells assessed as decrease in accumulation at S phase incubated for 16 hrs by PI staining based flow cytometry", "format": "functional", "conditions": "dose 1-3 µM"}, "MDA-MB-231 [6]": {"test_system": "MDA-MB-231", "experiment": "Induction of cell cycle arrest in human MDA-MB-231 cells assessed as decrease in accumulation at S phase incubated for 16 hrs by PI staining based flow cytometry", "format": "functional", "conditions": "dose 1-3 µM"}, "MDA-MB-468 [7]": {"test_system": "MDA-MB-468", "experiment": "Induction of cell cycle arrest in human MDA-MB-468 cells assessed as decrease in accumulation at S phase incubated for 16 hrs by PI staining based flow cytometry", "format": "functional", "conditions": "dose 1-3 µM"}, "MDA-MB-231 [8]": {"test_system": "MDA-MB-231", "experiment": "Induction of apoptosis in human MDA-MB-231 cells assessed as viable cells at 1 uM incubated for 16 hrs by Annexin V-FITC/PI staining based flow cytometry (reference value: 89.5 %)", "format": "functional", "conditions": "read-out: Activity"}, "MDA-MB-231 [9]": {"test_system": "MDA-MB-231", "experiment": "Induction of apoptosis in human MDA-MB-231 cells assessed as early apoptotic cells at 1 uM incubated for 16 hrs by Annexin V-FITC/PI staining based flow cytometry (reference value: 1.94 %)", "format": "functional"}, "MDA-MB-231 [10]": {"test_system": "MDA-MB-231", "experiment": "Induction of apoptosis in human MDA-MB-231 cells assessed as necrotic cells at 1 uM incubated for 16 hrs by Annexin V-FITC/PI staining based flow cytometry (reference value: 3.89 %)", "format": "functional"}, "MDA-MB-231 [11]": {"test_system": "MDA-MB-231", "experiment": "Induction of apoptosis in human MDA-MB-231 cells assessed as viable cells at 3 uM incubated for 16 hrs by Annexin V-FITC/PI staining based flow cytometry (reference value: 89.5 %)", "format": "functional", "conditions": "read-out: Activity"}, "MDA-MB-231 [12]": {"test_system": "MDA-MB-231", "experiment": "Induction of apoptosis in human MDA-MB-231 cells assessed as early apoptotic cells at 3 uM incubated for 16 hrs by Annexin V-FITC/PI staining based flow cytometry (reference value: 1.94 %)", "format": "functional"}, "MDA-MB-231 [13]": {"test_system": "MDA-MB-231", "experiment": "Induction of apoptosis in human MDA-MB-231 cells assessed as late apoptotic cells at 3 uM incubated for 16 hrs by Annexin V-FITC/PI staining based flow cytometry (reference value: 4.62 %)", "format": "functional"}, "MDA-MB-231 [14]": {"test_system": "MDA-MB-231", "experiment": "Induction of apoptosis in human MDA-MB-231 cells assessed as necrotic cells at 3 uM incubated for 16 hrs by Annexin V-FITC/PI staining based flow cytometry (reference value: 3.89 %)", "format": "functional"}, "MDA-MB-468 [15]": {"test_system": "MDA-MB-468", "experiment": "Induction of apoptosis in human MDA-MB-468 cells assessed as viable cells at 1 uM incubated for 24 hrs by Annexin V-FITC/PI staining based flow cytometry (reference value: 88.9 %)", "format": "functional", "conditions": "read-out: Activity"}, "MDA-MB-468 [16]": {"test_system": "MDA-MB-468", "experiment": "Induction of apoptosis in human MDA-MB-468 cells assessed as early apoptotic cells at 1 uM incubated for 24 hrs by Annexin V-FITC/PI staining based flow cytometry (reference value: 3.17 %)", "format": "functional"}, "MDA-MB-468 [17]": {"test_system": "MDA-MB-468", "experiment": "Induction of apoptosis in human MDA-MB-468 cells assessed as late apoptotic cells at 1 uM incubated for 24 hrs by Annexin V-FITC/PI staining based flow cytometry (reference value: 3.84 %)", "format": "functional"}, "MDA-MB-468 [18]": {"test_system": "MDA-MB-468", "experiment": "Induction of apoptosis in human MDA-MB-468 cells assessed as viable cells at 3 uM incubated for 24 hrs by Annexin V-FITC/PI staining based flow cytometry (reference value: 88.9 %)", "format": "functional", "conditions": "read-out: Activity"}, "MDA-MB-468 [19]": {"test_system": "MDA-MB-468", "experiment": "Induction of apoptosis in human MDA-MB-468 cells assessed as early apoptotic cells at 3 uM incubated for 24 hrs by Annexin V-FITC/PI staining based flow cytometry (reference value: 3.17 %)", "format": "functional"}, "HCC1937 [20]": {"test_system": "HCC1937", "experiment": "Induction of apoptosis in human HCC1937 cells assessed as viable cells at 1 uM incubated for 24 hrs by Annexin V-FITC/PI staining based flow cytometry (reference value: 97.2 %)", "format": "functional", "conditions": "read-out: Activity"}, "HCC1937 [21]": {"test_system": "HCC1937", "experiment": "Induction of apoptosis in human HCC1937 cells assessed as early apoptotic cells at 1 uM incubated for 24 hrs by Annexin V-FITC/PI staining based flow cytometry (reference value: 0.74 %)", "format": "functional"}, "HCC1937 [22]": {"test_system": "HCC1937", "experiment": "Induction of apoptosis in human HCC1937 cells assessed as late apoptotic cells at 1 uM incubated for 24 hrs by Annexin V-FITC/PI staining based flow cytometry (reference value: 1.45 %)", "format": "functional"}, "HCC1937 [23]": {"test_system": "HCC1937", "experiment": "Induction of apoptosis in human HCC1937 cells assessed as necrotic cells at 1 uM incubated for 24 hrs by Annexin V-FITC/PI staining based flow cytometry (reference value: 0.58 %)", "format": "functional"}, "HCC1937 [24]": {"test_system": "HCC1937", "experiment": "Induction of apoptosis in human HCC1937 cells assessed as viable cells at 3 uM incubated for 24 hrs by Annexin V-FITC/PI staining based flow cytometry (reference value: 97.2 %)", "format": "functional", "conditions": "read-out: Activity"}, "HCC1937 [25]": {"test_system": "HCC1937", "experiment": "Induction of apoptosis in human HCC1937 cells assessed as early apoptotic cells at 3 uM incubated for 24 hrs by Annexin V-FITC/PI staining based flow cytometry (reference value: 0.74 %)", "format": "functional"}, "HCC1937 [26]": {"test_system": "HCC1937", "experiment": "Induction of apoptosis in human HCC1937 cells assessed as late apoptotic cells at 3 uM incubated for 24 hrs by Annexin V-FITC/PI staining based flow cytometry (reference value: 1.45 %)", "format": "functional"}, "HCC1937 [27]": {"test_system": "HCC1937", "experiment": "Induction of apoptosis in human HCC1937 cells assessed as necrotic cells at 3 uM incubated for 24 hrs by Annexin V-FITC/PI staining based flow cytometry (reference value: 0.58 %)", "format": "functional"}, "HCC1806 [28]": {"test_system": "HCC1806", "experiment": "Induction of apoptosis in human HCC1806 cells assessed as late apoptotic cells at 1 uM incubated for 24 hrs by Annexin V-FITC/PI staining based flow cytometry (reference value: 1.48 %)", "format": "functional"}, "HCC1806 [29]": {"test_system": "HCC1806", "experiment": "Induction of apoptosis in human HCC1806 cells assessed as necrotic cells at 1 uM incubated for 24 hrs by Annexin V-FITC/PI staining based flow cytometry (reference value: 0.049 %)", "format": "functional"}, "MDA-MB-231 [30]": {"test_system": "MDA-MB-231", "experiment": "Induction of apoptosis in human MDA-MB-231 cells assessed as increase in cleaved PARP-1 level incubated for 16 hrs by Western blot analysis", "format": "functional, cell-based", "conditions": "dose 1-3 µM"}, "HCC1806 [31]": {"test_system": "HCC1806", "experiment": "Induction of apoptosis in human HCC1806 cells assessed as increase in cleaved PARP-1 level incubated for 24 hrs by Western blot analysis", "format": "functional, cell-based", "conditions": "dose 1-3 µM"}, "HCC1937 [32]": {"test_system": "HCC1937", "experiment": "Induction of apoptosis in human HCC1937 cells assessed as increase in cleaved PARP-1 level incubated for 24 hrs by Western blot analysis", "format": "functional, cell-based", "conditions": "dose 1-3 µM"}, "MDA-MB-231 [33]": {"test_system": "MDA-MB-231", "experiment": "Induction of cell cycle arrest in human MDA-MB-231 cells assessed as increase in p21 level incubated for 16 hrs by Western blot analysis", "format": "functional, cell-based", "conditions": "dose 1-3 µM"}, "MDA-MB-468 [34]": {"test_system": "MDA-MB-468", "experiment": "Induction of DNA damage in human MDA-MB-468 cells assessed as increase in gamma-H2AX level incubated for 24 hrs by Western blot analysis", "format": "functional, cell-based", "conditions": "dose 1-3 µM"}, "[35]": {"experiment": "Stability in human plasma assessed as half life at 100 uM by LC-MS/MS analysis", "format": "ADME, cell-free"}}}
{"smiles": "C=C1C(=O)[C@]23[C@H](OC(=O)C45CC6CC(CC(C6)C4)C5)[C@H]1CC[C@H]2[C@@]12CO[C@]3(O)[C@@H](O)[C@@H]1C(C)(C)CC[C@@H]2O", "values": [{"measurement": "IC50", "setting": "HCC1806 [1]", "value": 1400, "unit": "nM"}, {"measurement": "Activity", "setting": "HCC1806 [2]", "value": "Dose-dependent-effect"}, {"measurement": "Activity", "setting": "MDA-MB-231 [3]", "value": "Dose-dependent-effect"}, {"measurement": "Activity", "setting": "MDA-MB-468 [4]", "value": "Dose-dependent-effect"}, {"measurement": "Activity", "setting": "HCC1806 [5]", "value": "Dose-dependent-effect"}, {"measurement": "Activity", "setting": "MDA-MB-231 [6]", "value": "Dose-dependent-effect"}, {"measurement": "Activity", "setting": "MDA-MB-468 [7]", "value": "Dose-dependent-effect"}, {"measurement": "viability at 1 µM", "setting": "MDA-MB-231 [8]", "value": 93.5, "unit": "%"}, {"measurement": "Activity", "setting": "MDA-MB-231 [9]", "value": 4.31, "unit": "%"}, {"measurement": "Activity", "setting": "MDA-MB-231 [10]", "value": 0.32, "unit": "%"}, {"measurement": "viability at 3 µM", "setting": "MDA-MB-231 [11]", "value": 71.6, "unit": "%"}, {"measurement": "Activity", "setting": "MDA-MB-231 [12]", "value": 3.51, "unit": "%"}, {"measurement": "Activity", "setting": "MDA-MB-231 [13]", "value": 20.4, "unit": "%"}, {"measurement": "Activity", "setting": "MDA-MB-231 [14]", "value": 4.46, "unit": "%"}, {"measurement": "viability at 1 µM", "setting": "MDA-MB-468 [15]", "value": 87.5, "unit": "%"}, {"measurement": "Activity", "setting": "MDA-MB-468 [16]", "value": 5.18, "unit": "%"}, {"measurement": "Activity", "setting": "MDA-MB-468 [17]", "value": 7.11, "unit": "%"}, {"measurement": "viability at 3 µM", "setting": "MDA-MB-468 [18]", "value": 66.3, "unit": "%"}, {"measurement": "Activity", "setting": "MDA-MB-468 [19]", "value": 30, "unit": "%"}, {"measurement": "viability at 1 µM", "setting": "HCC1937 [20]", "value": 96.1, "unit": "%"}, {"measurement": "Activity", "setting": "HCC1937 [21]", "value": 1.23, "unit": "%"}, {"measurement": "Activity", "setting": "HCC1937 [22]", "value": 2.34, "unit": "%"}, {"measurement": "Activity", "setting": "HCC1937 [23]", "value": 0.33, "unit": "%"}, {"measurement": "viability at 3 µM", "setting": "HCC1937 [24]", "value": 71.1, "unit": "%"}, {"measurement": "Activity", "setting": "HCC1937 [25]", "value": 4.23, "unit": "%"}, {"measurement": "Activity", "setting": "HCC1937 [26]", "value": 24.1, "unit": "%"}, {"measurement": "Activity", "setting": "HCC1937 [27]", "value": 0.61, "unit": "%"}, {"measurement": "Activity", "setting": "HCC1806 [28]", "value": 2.8, "unit": "%"}, {"measurement": "Activity", "setting": "HCC1806 [29]", "value": 0.088, "unit": "%"}, {"measurement": "Activity", "setting": "MDA-MB-231 [30]", "value": "Dose-dependent-effect"}, {"measurement": "Activity", "setting": "HCC1806 [31]", "value": "Dose-dependent-effect"}, {"measurement": "Activity", "setting": "HCC1937 [32]", "value": "Dose-dependent-effect"}, {"measurement": "Activity", "setting": "MDA-MB-231 [33]", "value": "Dose-dependent-effect"}, {"measurement": "Activity", "setting": "MDA-MB-468 [34]", "value": "Dose-dependent-effect"}, {"measurement": "half-life at 100 µM", "setting": "[35]", "value": 2.4, "unit": "h"}]}
